Data from patent US20150072969A1, “PHENYL ALKANOIC ACID DERIVATIVES AS GPR AGONISTS” (PIRAMAL ENTERPRISES LIMITED, priority 2012, published 2015).
pEC50: −log10 of the molar value.

What follows are molecules tested against T1, human GPR40 (Homo sapiens, UniProt O14842) (assay: Inositol phosphate accumulation assay in FFAR1 (GPR40) CHOK1 clone). Conditions: GPR40 agonist activity; intracellular inositol phosphate release in CHOK1 cells stably expressing recombinant human GPR40; 1 h incubation at 37° C.
T1 construct: expressed in transfected cells
Assay type: cell-based
Protocol: The inositol phosphate accumulation assay was performed to characterise the GPR40 agonist activity of the compounds of the present invention.
The assay was carried out in accordance with the method substantially as described in Diabetes, 2008, 57(8):2211-2219 and PLoS One, 2011, 6(11):e27270.
A stable FFAR1 (GPR40) CHOK1 clone was used to determine the GPR40 agonist activity of the test compounds (compounds of the present invention synthesized in the above Examples). The stable FFAR1 (GPR40) CHOK1 clone expressing recombinant human GPR40 was generated according to the procedure described herein below.
Full-length human GPR40 cDNA (Accession Number: NM_005303) was cloned into mammalian expression vector (pReceiver) and was stably transfected into (Chinese Hamster Ovary) CHOK1 cells using Amaxa technology. 2 μg of pReceiver hGPR40 were transfected into 1×10^6 CHOK1 cells in 6 well plates. The cells were split into three 100 mm cell culture plates on the second day and geneticin (800 μg/ml) was added to the cell culture on the third day. The selection medium comprising Ham's F-12 K supplemented with FBS (10%) and geneticin (800 μg/ml) was changed every three days until colonies were formed. The colonies isolated were further purified (single cell cloning) after 14 days to obtain pure isogenic single cell homogenous population of cells expressing the GPR40 receptor protein on the cell surface. GPR40 receptor expression on cell surface was measured by flow cytometry. The in-house transgenic cell line (clone) created was labeled as FFAR1 (GPR40) CHOK1 clone.
FFAR1 (GPR40) CHOK1 cells were suspended in culture medium comprising Ham's F-12 K supplemented with FBS (10%) and geneticin (800 μg/ml). Cells were seeded at a density of 2×10^4 cells per well in a 384 well tissue culture plate and cultured overnight. The medium was discarded and the cells were further resuspended in a stimulation buffer comprising HEPES (10 mM), glucose (5.5 mM), CaCl2 (1 mM), NaCl (150 mM), KCl (4.2 mM), MgCl2 (0.5 mM) and LiCl (50 mM) having a pH of 7.6. The test compounds (representative compounds of Formula (I)) 10 mM stock were prepared in DMSO and subsequently log fold dilution of the test compounds were carried out in the stimulation buffer. Various concentrations of the test compounds and the standard DMSO solution were added to each well. The plates were further incubated at 37° C., 5% CO2 incubator for 1 h. The final concentration of the test compounds in the each well varied from 1 μM to 10 μM. The DMSO concentration in the assay was 0.1% or less. After incubation, lysis reagent and anti-Tb conjugate were added to each well. The intracellular Inositol Phosphate release and accumulation in the test compounds were measured by the binding ability of the anti-Tb conjugate with the inositol phosphate inherently produced in each well as compared with the inositol phosphate coupled to dye d2 added externally to each well. The plates were then read using Perkin Elmer (Envision) plate reader and the fluorescence signal was captured. The EC50 values for the test compounds were calculated from the non linear regression sigmoidal curve graphs plotted between the concentrations of the test compounds and the fluorescence intensity.

T1 sequence (O14842 whole entry): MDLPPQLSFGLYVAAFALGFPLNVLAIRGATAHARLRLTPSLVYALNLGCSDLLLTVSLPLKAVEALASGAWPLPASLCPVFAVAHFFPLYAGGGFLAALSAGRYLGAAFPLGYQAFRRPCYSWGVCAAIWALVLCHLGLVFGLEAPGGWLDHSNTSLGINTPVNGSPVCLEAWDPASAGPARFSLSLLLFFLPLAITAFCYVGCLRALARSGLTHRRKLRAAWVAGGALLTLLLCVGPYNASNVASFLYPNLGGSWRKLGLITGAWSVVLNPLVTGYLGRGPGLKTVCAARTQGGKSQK

Compared with `O=C(O)CC1(c2ccc(OCc3cccc(-c4ccc(OCC5CCC5)cc4)c3)cc2)COC1` [Example 75, 2-(3-(4-((4′-(Cyclobutylmethoxy)-[1,1′-biphenyl]-3-yl)methoxy)phenyl)oxetan-3-yl)acetic acid], `CSc1ccc(-c2cccc(COc3ccc(C4(CC(=O)O)COC4)cc3)c2)cc1` [Example 83, 2-(3-(4-((4′-(Methylthio)-[1,1′-biphenyl]-3-yl)methoxy)phenyl)oxetan-3-yl)acetic acid] is higher in pEC50: under 6.30 for the first, 6.30 to 7.00 for the second.

Compared with `Cc1cc(OCCCS(C)(=O)=O)ccc1-c1cccc(COc2ccc(C3(CC(=O)O)COC3)cc2)c1` [Example 77, 2-(3-(4-((2′-Methyl-4′-(3-(methylsulfonyl)propoxy)-[1,1′-biphenyl]-3-yl)methoxy)phenyl)oxetan-3-yl)acetic acid], `COc1cc(-c2cccc(COc3ccc(C4(CC(=O)O)COC4)cc3)c2)ccc1OCCCS(C)(=O)=O` [Example 81, 2-(3-(4-((3′-Methoxy-4′-(3-(methylsulfonyl)propoxy)-[1,1′-biphenyl]-3-yl)methoxy)phenyl)oxetan-3-yl)acetic acid] is lower in pEC50: over 7.00 for the first, under 6.30 for the second. The first is the more potent here.

Compared with `Cc1cc(-c2cccc(COc3ccc(C4(CC(=O)O)COC4)cc3)c2)cc(C)c1OCCCS(C)(=O)=O` [Example 79, 2-(3-(4-((3′,5′-Dimethyl-4′-(3-(methylsulfonyl)propoxy)-[1,1′-biphenyl]-3-yl)methoxy)phenyl)oxetan-3-yl)acetic acid], `CS(=O)(=O)CCCOc1ccc(-c2cccc(COc3ccc(C4(CC(=O)O)COC4)cc3)c2)cc1C(F)(F)F` [Example 87, 2-(3-(4-((4′-(3-(Methylsulfonyl)propoxy)-3′-(trifluoromethyl)-[1,1′-biphenyl]-3-yl)methoxy)phenyl)oxetan-3-yl)acetic acid] is lower in pEC50: 6.30 to 7.00 for the first, under 6.30 for the second.

First: CCCCSc1ccc(-c2cccc(COc3ccc(C4(CC(=O)O)COC4)cc3)c2)cc1 [Example 85, 2-(3-(4-((4′-(Butylthio)-[1,1′-biphenyl]-3-yl)methoxy)phenyl)oxetan-3-yl)acetic acid]
Second: CC(C)Sc1ccc(-c2cccc(COc3ccc(C4(CC(=O)O)COC4)cc3)c2)cc1 [Example 89, 2-(3-(4-((4′-(Isopropylthio)-[1,1′-biphenyl]-3-yl)methoxy)phenyl)oxetan-3-yl)acetic acid]
The pEC50 of the first is lower: under 6.30 for the first, 6.30 to 7.00 for the second. The second is the more potent here.

`Cc1cc(OCCCS(C)(=O)=O)cc(C)c1-c1cccc(COc2ccc(C3(CC(=O)O)CN(S(C)(=O)=O)C3)cc2)c1` [Example 94, 2-(3-(4-((2′,6′-Dimethyl-4′-(3-(methylsulfonyl)propoxy)-[1,1′-biphenyl]-3-yl)methoxy)phenyl)-1-(methylsulfonyl)azetidin-3-yl)acetic acid] and `CC(=O)N1CC(CC(=O)O)(c2ccc(OCc3cccc(-c4c(C)cc(OCCCS(C)(=O)=O)cc4C)c3)cc2)C1` [Example 96, 2-(1-Acetyl-3-(4-((2′,6′-dimethyl-4′-(3-(methylsulfonyl)propoxy)-[1,1′-biphenyl]-3-yl)methoxy)phenyl)azetidin-3-yl)acetic acid] cannot be ordered by pEC50: under 6.30 for the first, under 6.30 for the second.

`O=C(O)CC1(c2ccc(OCc3cccc(-c4ccc(C(F)(F)F)cc4)c3)c(F)c2)COC1` [Example 98, 2-(3-(3-Fluoro-4-((4′-(trifluoromethyl)-[1,1′-biphenyl]-3-yl)methoxy)phenyl)oxetan-3-yl)acetic acid] and `COc1cncc(-c2cccc(COc3ccc(C4(CC(=O)O)COC4)cc3)c2)c1` [Example 106, 2-(3-(4-((3-(5-Methoxypyridin-3-yl)benzyl)oxy)phenyl)oxetan-3-yl)acetic acid] cannot be ordered by pEC50: under 6.30 for the first, under 6.30 for the second.

Compared with `O=C(O)CC1(c2ccc(OCc3cccc(F)c3)cc2)COC1` [Example 102, 2-(3-(4-((3-Fluorobenzyl)oxy)phenyl)oxetan-3-yl)acetic acid], `O=C(O)CC1(c2ccc(OCc3cccc(-c4cnc(N5CCOCC5)nc4)c3)cc2)COC1` [Example 108, 2-(3-(4-((3-(2-Morpholinopyrimidin-5-yl)benzyl)oxy)phenyl)oxetan-3-yl)acetic acid] is higher in pEC50: under 6.30 for the first, over 7.00 for the second. The second is the more potent here.
